Target: T1, human capsaicin receptor (Homo sapiens, UniProt Q8NER1)
T1 construct: pBK-CMV expression construct encoding the full length human capsaicin receptor; expressed in transfected cells
Experiment: Calcium mobilization assay, determination of antagonist activity (Example 6)
Type: cell-based
Conditions: 50% decrease in fluorescence response of cells expressing human capsaicin receptor exposed to capsaicin
Method in brief: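 HEK293 cells stably expressing full-length human capsaicin receptor, Fluo-3 AM loaded, preincubated with compound 0.5–6 h at room temperature in KRH buffer pH 7.4. Challenged with capsaicin at its EC50; FLIPR fluorescence read. IC50 is concentration halving the capsaicin-induced calcium response.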

T1 sequence (Q8NER1 whole entry): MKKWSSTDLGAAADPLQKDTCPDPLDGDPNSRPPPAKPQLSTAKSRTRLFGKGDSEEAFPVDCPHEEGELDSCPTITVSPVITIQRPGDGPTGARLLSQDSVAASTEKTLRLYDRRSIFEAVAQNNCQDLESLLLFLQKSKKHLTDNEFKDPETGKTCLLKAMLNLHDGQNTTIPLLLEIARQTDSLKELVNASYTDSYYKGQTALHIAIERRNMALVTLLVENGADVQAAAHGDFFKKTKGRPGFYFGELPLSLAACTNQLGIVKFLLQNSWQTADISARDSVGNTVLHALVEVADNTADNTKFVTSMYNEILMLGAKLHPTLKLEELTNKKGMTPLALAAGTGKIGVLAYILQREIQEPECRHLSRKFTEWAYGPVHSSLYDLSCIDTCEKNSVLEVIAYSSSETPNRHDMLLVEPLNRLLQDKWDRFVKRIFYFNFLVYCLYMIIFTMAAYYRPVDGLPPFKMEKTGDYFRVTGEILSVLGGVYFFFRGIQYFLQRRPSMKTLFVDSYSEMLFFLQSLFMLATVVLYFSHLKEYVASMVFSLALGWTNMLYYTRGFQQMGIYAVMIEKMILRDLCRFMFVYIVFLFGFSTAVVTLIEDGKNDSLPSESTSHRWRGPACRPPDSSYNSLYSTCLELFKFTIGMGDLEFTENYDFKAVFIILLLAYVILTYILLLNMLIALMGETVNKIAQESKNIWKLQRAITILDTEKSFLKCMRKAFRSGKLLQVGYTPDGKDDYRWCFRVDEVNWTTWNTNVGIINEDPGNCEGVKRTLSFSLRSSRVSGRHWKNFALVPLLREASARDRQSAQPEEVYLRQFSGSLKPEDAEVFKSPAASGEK

SMILES: Fc1cccc(Nc2nc(N3CCCCC3)nc(N3CCN(c4ncccc4Cl)CC3)n2)c1 [Compound 70, {4-[4-(3-Chloro-pyridin-2-yl)-piperazin-1-yl]-6-piperidin-1-yl-[1,3,5]triazin-2-yl}-(3-fluoro-phenyl)-amine]
- IC50: ≤ 1 µM

SMILES: CCN(CC)c1nc(Nc2cccc(F)c2)nc(N2CCN(c3ncccc3Cl)CC2)n1 [Compound 71, 6-[4-(3-Chloro-pyridin-2-yl)-piperazin-1-yl]-N,N-diethyl-N′-(3-fluoro-phenyl)-[1,3,5]triazine-2,4-diamine]
- IC50: ≤ 1 µM

SMILES: CCN(C)c1nc(Nc2cccc(F)c2)nc(N2CCN(c3ncccc3Cl)CC2)n1 [Compound 72, 6-[4-(3-Chloro-pyridin-2-yl)-piperazin-1-yl]-N-ethyl-N′-(3-fluoro-phenyl)-N-methyl-[1,3,5]triazine-2,4-diamine]
- IC50: ≤ 1 µM

SMILES: Fc1cccc(Nc2nc(N3CCCC3)nc(N3CCN(c4ncccc4Cl)CC3)n2)c1 [Compound 73, {4-[4-(3-Chloro-pyridin-2-yl)-piperazin-1-yl]-6-pyrrolidin-1-yl-[1,3,5]triazin-2-yl}-(3-fluoro-phenyl)-amine]
- IC50: ≤ 1 µM

SMILES: CCCN(C)c1nc(Nc2cccc(F)c2)nc(N2CCN(c3ncccc3Cl)CC2)n1 [Compound 74, 6-[4-(3-Chloro-pyridin-2-yl)-piperazin-1-yl]-N-(3-fluoro-phenyl)-N′-methyl-N′-propyl-[1,3,5]triazine-2,4-diamine]
- IC50: ≤ 1 µM

SMILES: CCCCN(C)c1nc(Nc2cccc(F)c2)nc(N2CCN(c3ncccc3Cl)CC2)n1 [Compound 75, N-Butyl-6-[4-(3-chloro-pyridin-2-yl)-piperazin-1-yl]-N′-(3-fluoro-phenyl)-N-methyl-[1,3,5]triazine-2,4-diamine]
- IC50: ≤ 1 µM

SMILES: CN(C)c1nc(Nc2cccc(F)c2)nc(N2CCN(c3ncccc3Cl)CC2)n1 [Compound 76, 6-[4-(3-Chloro-pyridin-2-yl)-piperazin-1-yl]-N-(3-fluoro-phenyl)-N′,N′-dimethyl-[1,3,5]triazine-2,4-diamine]
- IC50: ≤ 1 µM

SMILES: CC1CCCN1c1nc(Nc2cccc(F)c2)nc(N2CCN(c3ncccc3Cl)CC2)n1 (stereo not shown) [Compound 77, [4-[4-(3-Chloro-pyridin-2-yl)-piperazin-1-yl]-6-(2-methyl-pyrrolidin-1-yl)-[1,3,5]triazin-2-yl]-(3-fluoro-phenyl)-amine]
- IC50: ≤ 1 µM

SMILES: Fc1cccc(Nc2nc(N3CCCCCC3)nc(N3CCN(c4ncccc4Cl)CC3)n2)c1 [Compound 78, {4-Azepan-1-yl-6-[4-(3-chloro-pyridin-2-yl)-piperazin-1-yl]-[1,3,5]triazin-2-yl}-(3-fluoro-phenyl)-amine]
- IC50: ≤ 1 µM

SMILES: CC(C)N(C)c1nc(Nc2cccc(F)c2)nc(N2CCN(c3ncccc3Cl)CC2)n1 [Compound 79, 6-[4-(3-Chloro-pyridin-2-yl)-piperazin-1-yl]-N-(3-fluoro-phenyl)-N′-isopropyl-N′-methyl-[1,3,5]triazine-2,4-diamine]
- IC50: ≤ 1 µM

SMILES: CCN(c1nc(Nc2cccc(F)c2)nc(N2CCN(c3ncccc3Cl)CC2)n1)C(C)C [Compound 80, 6-[4-(3-Chloro-pyridin-2-yl)-piperazin-1-yl]-N-ethyl-N′-(3-fluoro-phenyl)-N-isopropyl-[1,3,5]triazine-2,4-diamine]
- IC50: ≤ 1 µM

SMILES: CCCNc1nc(Nc2cccc(F)c2)nc(N2CCN(c3ncccc3Cl)CC2)n1 [Compound 81, 6-[4-(3-Chloro-pyridin-2-yl)-piperazin-1-yl]-N-(3-fluoro-phenyl)-N′-propyl-[1,3,5]triazine-2,4-diamine]
- IC50: ≤ 1 µM

SMILES: Cc1nc(Nc2ccc(C(F)(F)F)cc2)nc(N2CCN(c3ncccc3Cl)CC2)n1 [Compound 82, {4-[4-(3-Chloro-pyridin-2-yl)-piperazin-1-yl]-6-methyl-[1,3,5]triazin-2-yl}-(4-trifluoromethyl-phenyl)-amine]
- IC50: ≤ 1 µM

SMILES: Fc1ccc(Nc2nc(N3CCOCC3)cc(N3CCN(c4ncccc4C(F)(F)F)CC3)n2)cc1 [Compound 83, (4-Fluoro-phenyl)-{4-morpholin-4-yl-6-[4-(3-trifluoromethyl-pyridin-2-yl)-piperazin-1-yl]-pyrimidin-2-yl}-amine]
- IC50: ≤ 1 µM

SMILES: FC(F)(F)c1cccnc1N1CCN(c2cc(N3CCOCC3)nc(Nc3cccc(Cl)c3)n2)CC1 [Compound 84, (3-Chloro-phenyl)-{4-morpholin-4-yl-6-[4-(3-trifluoromethyl-pyridin-2-yl)-piperazin-1-yl]-pyrimidin-2-yl}-amine]
- IC50: ≤ 1 µM

SMILES: Cc1ccccc1Nc1nc(N2CCOCC2)cc(N2CCN(c3ncccc3C(F)(F)F)CC2)n1 [Compound 85, {4-Morpholin-4-yl-6-[4-(3-trifluoromethyl-pyridin-2-yl)-piperazin-1-yl]pyrimidin-2-yl}-o-tolyl-amine]
- IC50: ≤ 1 µM

SMILES: Cc1cccc(Nc2nc(N3CCOCC3)cc(N3CCN(c4ncccc4C(F)(F)F)CC3)n2)c1 [Compound 86, {4-Morpholin-4-yl-6-[4-(3-trifluoromethyl-pyridin-2-yl)-piperazin-1-yl]-pyrimidin-2-yl}-m-tolyl-amine]
- IC50: ≤ 1 µM

SMILES: Cc1ccc(Nc2nc(N3CCOCC3)cc(N3CCN(c4ncccc4C(F)(F)F)CC3)n2)cc1 [Compound 87, {4-Morpholin-4-yl-6-[4-(3-trifluoromethyl-pyridin-2-yl)-piperazin-1-yl]-pyrimidin-2-yl}-p-tolyl-amine]
- IC50: ≤ 1 µM

SMILES: COc1cccc(Nc2nc(N3CCOCC3)cc(N3CCN(c4ncccc4C(F)(F)F)CC3)n2)c1 [Compound 88, (3-Methoxy-phenyl)-{4-morpholin-4-yl-6-[4-(3-trifluoromethyl-pyridin-2-yl)-piperazin-1-yl]-pyrimidin-2-yl}-amine]
- IC50: ≤ 1 µM

SMILES: COc1ccc(Nc2nc(N3CCOCC3)cc(N3CCN(c4ncccc4C(F)(F)F)CC3)n2)cc1 [Compound 89, (4-Methoxy-phenyl)-{4-morpholin-4-yl-6-[4-(3-trifluoromethyl-pyridin-2-yl)-piperazin-1-yl]-pyrimidin-2-yl}-amine]
- IC50: ≤ 1 µM

SMILES: CCN(CC)c1nc(Nc2ccc(F)cc2)nc(N2CCN(c3ncccc3Cl)CC2)n1 [Compound 90, 6-[4-(3-Chloro-pyridin-2-yl)-piperazin-1-yl]-N,N-diethyl-N′-(4-fluoro-phenyl)-[1,3,5]triazine-2,4-diamine]
- IC50: ≤ 1 µM

SMILES: CCN(CC)c1nc(Nc2ccc(F)c(F)c2)nc(N2CCN(c3ncccc3Cl)CC2)n1 [Compound 91, 6-[4-(3-Chloro-pyridin-2-yl)-piperazin-1-yl]-N-(3,4-difluoro-phenyl)-N′,N′-diethyl-[1,3,5]triazine-2,4-diamine]
- IC50: ≤ 1 µM

SMILES: CCN(CC)c1nc(Nc2cccc(Cl)c2)nc(N2CCN(c3ncccc3Cl)CC2)n1 [Compound 92, N-(3-Chloro-phenyl)-6-[4-(3-chloro-pyridin-2-yl)-piperazin-1-yl]-N′,N′-diethyl-[1,3,5]triazine-2,4-diamine]
- IC50: ≤ 1 µM

SMILES: CCN(CC)c1nc(Nc2cccc(OC)c2)nc(N2CCN(c3ncccc3Cl)CC2)n1 [Compound 93, 6-[4-(3-Chloro-pyridin-2-yl)-piperazin-1-yl]-N,N-diethyl-N′-(3-methoxy-phenyl)-[1,3,5]triazine-2,4-diamine]
- IC50: ≤ 1 µM

SMILES: CCN(CC)c1nc(Nc2ccc(F)cc2)nc(N2CCN(c3ccccn3)CC2)n1 [Compound 94, N,N-Diethyl-N′-(4-fluoro-phenyl)-6-(4-pyridin-2-yl-piperazin-1-yl)-[1,3,5]triazine-2,4-diamine]
- IC50: ≤ 1 µM

From US20070043049A1, “Substituted heterocyclic diarylamine analogues” (Neurogen Corporation, priority 2003, published 2007)
